According to PMC3401038 (ACS Chemical Biology, 2012):

Columns and labels:
M. tuberculosis H37Rv [1] = format: cell-based, Mycobacterium tuberculosis; conditions: hypoxic shift down M. tuberculosis H37Rv, result in words
M. tuberculosis H37Rv [2] = format: cell-based, Mycobacterium tuberculosis; conditions: hypoxic shift down M. tuberculosis, 5 days treatment, result in words
M. bovis BCGMtbNar = format: cell-based, Mycobacterium bovis BCG

Structure (SMILES) | effect on ATP levels (M. tuberculosis H37Rv [1]) | bacterial viability (CFU) (M. tuberculosis H37Rv [2]) | effect on ATP pool / intracellular ATP levels (M. bovis BCGMtbNar)
O=[N+]([O-])c1cn2c(n1)OC[C@@H](OCc1ccc(OC(F)(F)F)cc1)C2 [PA-824] | reduction in ATP levels | reduction in bacterial viability | 
COc1nc2ccc(Br)cc2cc1[C@@H](c1ccccc1)[C@@](O)(CCN(C)C)c1cccc2ccccc12 [TMC207] | reduction in ATP levels | reduction in bacterial viability | significantly reduce the ATP pool
Cc1ncc([N+](=O)[O-])n1CCO [metronidazole] |  |  | not affected
